In ChEMBL document CHEMBL1147537, “N-Benzoyl amino acids as ICAM/LFA-1 inhibitors. Part 2: structure-activity relationship of the benzoyl moiety” (Bioorg Med Chem Lett, 2004):
Non-standard residues stand in square brackets, D forms with d. Residues, ends and D or L forms follow the SMILES beside them. ξ: configuration not given here. ξPip = O=C(O)C1CCCCN1

These molecules were tested against Intercellular adhesion molecule (ICAM-1), Integrin alpha-L/beta-2 (Homo sapiens, UniProt P05107+P05362+P20701) (assay: Inhibitory activity against association of LFA-1 with intercellular adhesion molecule 1).
Sequence of Intercellular adhesion molecule (ICAM-1), Integrin alpha-L/beta-2 (P20701 whole entry): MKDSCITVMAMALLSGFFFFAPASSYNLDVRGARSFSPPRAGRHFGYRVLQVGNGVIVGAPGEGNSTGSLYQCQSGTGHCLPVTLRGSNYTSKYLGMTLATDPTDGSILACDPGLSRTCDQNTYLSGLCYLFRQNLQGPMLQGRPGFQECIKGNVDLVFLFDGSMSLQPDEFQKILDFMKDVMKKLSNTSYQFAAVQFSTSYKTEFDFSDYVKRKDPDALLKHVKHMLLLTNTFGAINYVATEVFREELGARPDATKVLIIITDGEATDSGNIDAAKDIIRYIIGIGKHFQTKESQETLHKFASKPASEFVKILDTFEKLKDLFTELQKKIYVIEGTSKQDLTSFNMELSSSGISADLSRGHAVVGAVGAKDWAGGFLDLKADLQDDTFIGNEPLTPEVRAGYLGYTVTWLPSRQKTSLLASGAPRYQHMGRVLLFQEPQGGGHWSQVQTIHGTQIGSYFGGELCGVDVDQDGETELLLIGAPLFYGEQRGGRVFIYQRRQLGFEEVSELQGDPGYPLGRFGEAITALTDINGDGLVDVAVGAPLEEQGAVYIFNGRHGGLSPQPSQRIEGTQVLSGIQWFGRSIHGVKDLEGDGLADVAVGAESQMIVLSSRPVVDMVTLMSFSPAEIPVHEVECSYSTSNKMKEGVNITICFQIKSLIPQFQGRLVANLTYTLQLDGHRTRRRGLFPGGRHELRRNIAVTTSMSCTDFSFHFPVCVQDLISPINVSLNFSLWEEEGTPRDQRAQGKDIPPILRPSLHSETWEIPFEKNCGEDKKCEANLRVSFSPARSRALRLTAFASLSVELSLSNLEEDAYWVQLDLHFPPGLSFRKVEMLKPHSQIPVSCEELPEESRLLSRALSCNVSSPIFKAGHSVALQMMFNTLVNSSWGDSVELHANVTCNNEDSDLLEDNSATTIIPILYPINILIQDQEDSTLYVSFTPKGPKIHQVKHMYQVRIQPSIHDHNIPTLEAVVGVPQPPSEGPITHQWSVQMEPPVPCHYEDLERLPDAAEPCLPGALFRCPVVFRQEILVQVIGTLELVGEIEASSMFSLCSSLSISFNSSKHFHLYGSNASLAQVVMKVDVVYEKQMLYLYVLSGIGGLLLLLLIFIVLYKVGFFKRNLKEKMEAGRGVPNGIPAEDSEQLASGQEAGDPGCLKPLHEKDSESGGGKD
Sequence of Intercellular adhesion molecule (ICAM-1), Integrin alpha-L/beta-2 (P05362 whole entry): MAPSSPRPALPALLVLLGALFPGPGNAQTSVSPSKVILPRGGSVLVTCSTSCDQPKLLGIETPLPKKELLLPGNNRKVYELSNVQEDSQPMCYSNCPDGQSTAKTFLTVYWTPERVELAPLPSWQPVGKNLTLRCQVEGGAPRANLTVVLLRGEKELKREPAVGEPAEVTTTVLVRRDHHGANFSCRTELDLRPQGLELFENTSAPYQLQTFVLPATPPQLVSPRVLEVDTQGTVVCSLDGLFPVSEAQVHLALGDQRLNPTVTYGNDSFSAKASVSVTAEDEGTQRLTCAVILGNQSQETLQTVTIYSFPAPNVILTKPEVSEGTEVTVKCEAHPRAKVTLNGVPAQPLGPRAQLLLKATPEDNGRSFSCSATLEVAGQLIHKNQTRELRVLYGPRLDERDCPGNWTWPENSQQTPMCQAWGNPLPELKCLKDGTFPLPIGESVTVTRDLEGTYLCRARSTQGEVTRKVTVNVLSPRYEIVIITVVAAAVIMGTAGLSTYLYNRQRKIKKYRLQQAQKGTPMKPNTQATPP
Sequence of Intercellular adhesion molecule (ICAM-1), Integrin alpha-L/beta-2 (P05107 whole entry): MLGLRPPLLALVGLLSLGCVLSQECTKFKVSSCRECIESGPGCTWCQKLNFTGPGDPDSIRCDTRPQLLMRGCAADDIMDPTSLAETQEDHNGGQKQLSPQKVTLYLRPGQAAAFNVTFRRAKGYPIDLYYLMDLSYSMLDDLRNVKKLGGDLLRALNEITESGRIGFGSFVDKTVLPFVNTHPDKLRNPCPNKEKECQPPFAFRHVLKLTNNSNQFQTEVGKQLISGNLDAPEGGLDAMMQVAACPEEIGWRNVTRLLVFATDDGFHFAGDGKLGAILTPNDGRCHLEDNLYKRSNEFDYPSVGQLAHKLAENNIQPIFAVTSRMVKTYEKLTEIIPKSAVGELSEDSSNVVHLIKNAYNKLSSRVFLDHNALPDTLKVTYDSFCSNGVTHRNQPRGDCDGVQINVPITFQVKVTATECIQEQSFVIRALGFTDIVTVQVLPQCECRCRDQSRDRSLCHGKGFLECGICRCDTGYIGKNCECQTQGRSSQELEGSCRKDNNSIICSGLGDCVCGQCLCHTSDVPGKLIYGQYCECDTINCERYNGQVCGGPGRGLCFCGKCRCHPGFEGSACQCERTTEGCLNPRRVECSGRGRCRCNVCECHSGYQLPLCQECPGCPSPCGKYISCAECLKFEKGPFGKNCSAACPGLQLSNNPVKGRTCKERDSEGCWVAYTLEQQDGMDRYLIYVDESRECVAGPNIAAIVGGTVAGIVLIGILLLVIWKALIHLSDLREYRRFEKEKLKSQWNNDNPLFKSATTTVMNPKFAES
Assay type: protein-complex assay

Row | IC50 [µM] | SMILES
1 | 127 | O=C(N[C@@H](Cc1c[nH]c2ccccc12)C(=O)O)c1ccccc1
2 | 7.4 | O=C(N[C@@H](Cc1c[nH]c2ccccc12)C(=O)O)c1ccccc1F
3 | 129 | Cc1ccc(C(=O)N[C@@H](Cc2c[nH]c3ccccc23)C(=O)O)cc1
4 | 8.4 | O=C(N[C@@H](Cc1c[nH]c2ccccc12)C(=O)O)c1ccc(Cl)cc1Cl
5 | 295 | Cc1cccc(C(=O)N[C@@H](Cc2c[nH]c3ccccc23)C(=O)O)c1
6 | 136 | O=C(N[C@@H](Cc1c[nH]c2ccccc12)C(=O)O)c1ccc(F)cc1
7 | 178 | COc1ccc(C(=O)N[C@@H](Cc2c[nH]c3ccccc23)C(=O)O)cc1
8 | 32.6 | O=C(N[C@@H](Cc1c[nH]c2ccccc12)C(=O)O)c1cnccc1Cl
9 | 148 | O=C(N[C@@H](Cc1c[nH]c2ccccc12)C(=O)O)c1cccc(F)c1
10 | 61 | O=C(N[C@@H](Cc1c[nH]c2ccccc12)C(=O)O)c1ccc(Br)cc1
11 | > 100 | O=C(N[C@@H](Cc1c[nH]c2ccccc12)C(=O)O)c1cccc(Br)c1
12 | 295 | O=C(N[C@@H](Cc1c[nH]c2ccccc12)C(=O)O)c1cccc(Cl)c1
13 | 17.9 | O=C(N[C@@H](Cc1c[nH]c2ccccc12)C(=O)O)c1cc(Br)ccc1Cl
14 | > 100 | O=C(N[C@@H](Cc1c[nH]c2ccccc12)C(=O)O)c1cccc(O)c1
15 | > 100 | O=C(N[C@@H](Cc1c[nH]c2ccccc12)C(=O)O)c1cccc(I)c1
16 | 200 | O=C(N[C@@H](Cc1c[nH]c2ccccc12)C(=O)O)c1cc(Cl)cc(Cl)c1
17 | 92 | O=C(N[C@@H](Cc1c[nH]c2ccccc12)C(=O)O)c1ccncc1
18 | 11.5 | O=C(N[C@@H](Cc1c[nH]c2ccccc12)C(=O)O)c1cc(F)ccc1F
19 | > 100 | O=C(N[C@@H](Cc1c[nH]c2ccccc12)C(=O)O)c1ccc(O)cc1
20 | 170 | O=C(N[C@@H](Cc1c[nH]c2ccccc12)C(=O)O)c1ccc(Cl)c(Cl)c1
21 | 92 | O=C(N[C@@H](Cc1c[nH]c2ccccc12)C(=O)O)c1ccc(I)cc1
22 | 1.5 | O=C(N[C@@H](Cc1c[nH]c2ccccc12)C(=O)O)c1ccccc1Cl
23 | 6.6 | O=C(N[C@@H](Cc1c[nH]c2ccccc12)C(=O)O)c1cc(Cl)ccc1Cl
24 | 169 | O=C(N[C@@H](Cc1c[nH]c2ccccc12)C(=O)O)c1ccc(Cl)cc1 [BENZOTRIPT]

Further lines, the molecule ahead of its results:

Row | SMILES | IC50 [µM]
25 | O=C(N[C@@H](Cc1c[nH]c2ccccc12)C(=O)O)C1CCNCC1 | > 1000
26 | O=C(N[C@@H](Cc1c[nH]c2ccccc12)C(=O)O)c1ccccc1O | > 500
27 | O=C(N[C@@H](Cc1c[nH]cn1)C(=O)O)c1c(F)cccc1Cl | 0.13
28 | O=C(N[C@@H](Cc1c[nH]c2ccccc12)C(=O)O)c1c(F)cccc1Br | 0.43
29 | O=C(N[C@@H](Cc1c[nH]c2ccccc12)C(=O)O)C1CCCNC1 (stereo partly drawn) | > 1000
30 | O=C(O)[C@H](Cc1c[nH]c2ccccc12)NC(=O)N1CCCCC1 | 380
31 | O=C(N[C@@H](Cc1c[nH]c2ccccc12)C(=O)O)c1cccc(Cl)c1Cl | 6.3
32 | NC(=O)C[C@H](NC(=O)c1c(Cl)cccc1Cl)C(=O)O | 0.17
33 | Nc1ccc(C(=O)N[C@@H](Cc2c[nH]c3ccccc23)C(=O)O)c(Cl)c1 | 2
34 | O=C(N[C@@H](Cc1c[nH]c2ccccc12)C(=O)O)c1c(F)cccc1F | 0.46
35 | O=C(N[C@@H](Cc1c[nH]c2ccccc12)C(=O)O)c1cc(Br)ccc1O | > 500
36 | O=C(N[C@@H](Cc1c[nH]c2ccccc12)C(=O)O)c1ccccc1I | 8.9
37 | O=C(N[C@@H](Cc1c[nH]c2ccccc12)C(=O)O)c1cccnc1 | 112
38 | O=C(N[C@@H](Cc1c[nH]c2ccccc12)C(=O)O)c1cncc(Br)c1 | > 200
39 | O=C(N[C@@H](Cc1c[nH]c2ccccc12)C(=O)O)C1CCCCC1 | 61
40 | O=C(N[C@@H](Cc1c[nH]c2ccccc12)C(=O)O)c1c(F)cccc1Cl | 0.25
41 | O=C(N[C@@H](Cc1c[nH]c2ccccc12)C(=O)O)c1ccc(-c2ccccc2)cc1 | > 100
42 | O=C(N[C@@H](Cc1c[nH]c2ccccc12)C(=O)O)c1ccccc1-c1ccccc1 | > 100
43 | O=C(N[C@@H](Cc1c[nH]c2ccccc12)C(=O)O)c1ccc([N+](=O)[O-])cc1Cl | 5.2
44 | Cc1cccc(C)c1C(=O)N[C@@H](Cc1c[nH]c2ccccc12)C(=O)O | 1.1

Row | SMILES | IC50 [µM]
45 | O=C(N[C@@H](Cc1c[nH]c2ccccc12)C(=O)O)c1cc(Br)ccc1Br | 24.3
46 | NC(=O)C[C@H](NC(=O)c1c(F)cccc1Cl)C(=O)O | 0.11
47 | O=C(N[C@@H](Cc1c[nH]cn1)C(=O)O)c1c(F)cccc1F | 0.2
48 | NC(=O)C[C@H](NC(=O)c1c(F)cccc1F)C(=O)O | 0.23
49 | COc1cccc(C(=O)N[C@@H](Cc2c[nH]c3ccccc23)C(=O)O)c1 | 438
50 | COc1ccccc1C(=O)N[C@@H](Cc1c[nH]c2ccccc12)C(=O)O | 225
51 | COc1ccc(Br)c(C(=O)N[C@@H](Cc2c[nH]c3ccccc23)C(=O)O)c1 | 9
52 | Cc1cccc(Cl)c1C(=O)N[C@@H](Cc1c[nH]c2ccccc12)C(=O)O | 0.64
53 | O=C(N[C@@H](Cc1c[nH]c2ccccc12)C(=O)O)c1ccc[n+]([O-])c1 | > 1000
54 | CC1CCCCC1C(=O)N[C@@H](Cc1c[nH]c2ccccc12)C(=O)O (stereo partly drawn) | 28
55 | Cc1cccc(C)c1C(=O)N[C@@H](Cc1cnc[nH]1)C(=O)O | 1.77
56 | O=C(N[C@@H](Cc1c[nH]c2ccccc12)C(=O)O)c1ccccn1 | > 100
57 | Cc1ccccc1C(=O)N[C@@H](Cc1c[nH]c2ccccc12)C(=O)O | 4
58 | O=C(N[C@@H](Cc1c[nH]c2ccccc12)C(=O)O)c1cc(F)cc(F)c1 | 89.7
59 | O=C(N[C@@H](Cc1cnc[nH]1)C(=O)O)c1c(Cl)cccc1Cl | 0.16
60 | O=C(N[C@@H](Cc1c[nH]c2ccccc12)C(=O)O)c1c(Cl)cccc1Cl | 0.6
61 | O=C(N[C@@H](Cc1c[nH]c2ccccc12)C(=O)O)c1cccc(F)c1F | 21.6
62 | O=C(N[C@@H](Cc1c[nH]c2ccccc12)C(=O)O)c1cccnc1Cl | 1.2
63 | O=C(N[C@@H](Cc1c[nH]c2ccccc12)C(=O)O)C1CCCCN1 (stereo partly drawn) (H-[ξPip]-Trp-OH) | > 1000
